# Measured values reported in ChEMBL document CHEMBL3885881, “DrugMatrix”.
# Species on record: Rattus norvegicus
# Experiment: DrugMatrix - Regimen: Daily Repeat
# Type: toxicity, organism-based, Sprague-Dawley
# Set-up: regimen Daily Repeat, gender Male, age 6-8 weeks
# Conditions: in vivo, po, 200 mg/kg, route oral GAVAGE, dose level High, vehicle .5 % CMC; for ABSOLUTE BASOPHIL / ABSOLUTE EOSINOPHIL / ABSOLUTE LYMPHOCYTE / ABSOLUTE MONOCYTE / ABSOLUTE SEGMENTED NEUTROPHIL / BASOPHIL / EOSINOPHIL / ERYTHROCYTE COUNT / HEMATOCRIT / HEMOGLOBIN / LEUKOCYTE COUNT / LYMPHOCYTE / MEAN CORPUSCULAR HEMOGLOBIN / MEAN CORPUSCULAR HEMOGLOBIN CONCENTRATION / MEAN CORPUSCULAR VOLUME / MONOCYTE / NEUTROPHIL / NUCLEATED RED BLOOD CELLS / PLATELET COUNT: tissue Blood; for ALANINE AMINOTRANSFERASE / ALBUMIN / ALKALINE PHOSPHATASE / ASPARTATE AMINOTRANSFERASE / BLOOD UREA NITROGEN / CARBON DIOXIDE / CHLORIDE / CHOLESTEROL / CREATINE PHOSPHOKINASE / CREATININE / GLUCOSE / LACTATE DEHYDROGENASE / LIPASE / PHOSPHORUS / POTASSIUM / SODIUM / TOTAL BILIRUBIN / TOTAL PROTEIN / URIC ACID: tissue Plasma
structure (smiles),measurement,setting,value
Nc1nc(N)c2nc(-c3ccccc3)c(N)nc2n1,ABSOLUTE BASOPHIL,"72 h, time 3 day",0 CELLS/uL
same,ABSOLUTE EOSINOPHIL,"72 h, time 3 day",51 CELLS/uL
same,ABSOLUTE LYMPHOCYTE,"72 h, time 3 day",12546 CELLS/uL
same,ABSOLUTE MONOCYTE,"72 h, time 3 day",436.67 CELLS/uL
same,ABSOLUTE SEGMENTED NEUTROPHIL,"72 h, time 3 day",1333 CELLS/uL
same,BASOPHIL,"72 h, time 3 day",0%
same,EOSINOPHIL,"72 h, time 3 day",0.33%
same,ERYTHROCYTE COUNT,"72 h, time 3 day",5.38 x10E6/uL
same,HEMATOCRIT,"72 h, time 3 day",33.6%
same,HEMOGLOBIN,"72 h, time 3 day",13.03 G/DL
same,LEUKOCYTE COUNT,"72 h, time 3 day",14.37 x10E3/uL
same,LYMPHOCYTE,"72 h, time 3 day",87.33%
same,MEAN CORPUSCULAR HEMOGLOBIN,"72 h, time 3 day",24.23 pg
same,MEAN CORPUSCULAR HEMOGLOBIN CONCENTRATION,"72 h, time 3 day",38.83 G/DL
same,MEAN CORPUSCULAR VOLUME,"72 h, time 3 day",62.47 fL
same,MONOCYTE,"72 h, time 3 day",3%
same,NEUTROPHIL,"72 h, time 3 day",9.33%
same,NUCLEATED RED BLOOD CELLS,"72 h, time 3 day",0.33 /100WBC
same,PLATELET COUNT,"72 h, time 3 day",1312 x10E3/uL
same,ALANINE AMINOTRANSFERASE,"72 h, time 3 day",57.33 u/L
same,ALBUMIN,"72 h, time 3 day",4.17 G/DL
same,ALKALINE PHOSPHATASE,"72 h, time 3 day",279 u/L
same,ASPARTATE AMINOTRANSFERASE,"72 h, time 3 day",70.67 u/L
same,BLOOD UREA NITROGEN,"72 h, time 3 day",22.33 mg/dL
same,CARBON DIOXIDE,"72 h, time 3 day",27.67 mmol/L
same,CHLORIDE,"72 h, time 3 day",104.67 MEQ/L
same,CHOLESTEROL,"72 h, time 3 day",86.67 mg/dL
same,CREATINE PHOSPHOKINASE,"72 h, time 3 day",220 u/L
same,CREATININE,"72 h, time 3 day",0.24 mg/dL
same,GLUCOSE,"72 h, time 3 day",154 mg/dL
same,LACTATE DEHYDROGENASE,"72 h, time 3 day",170.33 u/L
same,LIPASE,"72 h, time 3 day",9.33 u/L
same,PHOSPHORUS,"72 h, time 3 day",12.93 mg/dL
same,POTASSIUM,"72 h, time 3 day",6.66 MEQ/L
same,SODIUM,"72 h, time 3 day",145.07 MEQ/L
same,TOTAL BILIRUBIN,"72 h, time 3 day",0.17 mg/dL
same,TOTAL PROTEIN,"72 h, time 3 day",5.8 G/DL
same,URIC ACID,"72 h, time 3 day",1.5 mg/dL
same,ABSOLUTE BASOPHIL,"120 h, time 5 day",0 CELLS/uL
same,ABSOLUTE EOSINOPHIL,"120 h, time 5 day",238.67 CELLS/uL
same,ABSOLUTE LYMPHOCYTE,"120 h, time 5 day",14472.33 CELLS/uL
same,ABSOLUTE MONOCYTE,"120 h, time 5 day",270.33 CELLS/uL
same,ABSOLUTE SEGMENTED NEUTROPHIL,"120 h, time 5 day",2185.33 CELLS/uL
same,BASOPHIL,"120 h, time 5 day",0%
same,EOSINOPHIL,"120 h, time 5 day",1.33%
same,ERYTHROCYTE COUNT,"120 h, time 5 day",5.62 x10E6/uL
same,HEMATOCRIT,"120 h, time 5 day",33.9%
same,HEMOGLOBIN,"120 h, time 5 day",13.03 G/DL
same,LEUKOCYTE COUNT,"120 h, time 5 day",17.17 x10E3/uL
same,LYMPHOCYTE,"120 h, time 5 day",84.33%
same,MEAN CORPUSCULAR HEMOGLOBIN,"120 h, time 5 day",23.2 pg
same,MEAN CORPUSCULAR HEMOGLOBIN CONCENTRATION,"120 h, time 5 day",38.43 G/DL
same,MEAN CORPUSCULAR VOLUME,"120 h, time 5 day",60.33 fL
same,MONOCYTE,"120 h, time 5 day",1.67%
same,NEUTROPHIL,"120 h, time 5 day",12.67%
same,NUCLEATED RED BLOOD CELLS,"120 h, time 5 day",0.67 /100WBC
same,PLATELET COUNT,"120 h, time 5 day",1441.67 x10E3/uL
same,ALANINE AMINOTRANSFERASE,"120 h, time 5 day",49.33 u/L
same,ALBUMIN,"120 h, time 5 day",4.13 G/DL
same,ALKALINE PHOSPHATASE,"120 h, time 5 day",284.33 u/L
same,ASPARTATE AMINOTRANSFERASE,"120 h, time 5 day",91.33 u/L
same,BLOOD UREA NITROGEN,"120 h, time 5 day",20 mg/dL
same,CARBON DIOXIDE,"120 h, time 5 day",27 mmol/L
same,CHLORIDE,"120 h, time 5 day",102.67 MEQ/L
same,CHOLESTEROL,"120 h, time 5 day",62.33 mg/dL
same,CREATINE PHOSPHOKINASE,"120 h, time 5 day",540.67 u/L
same,CREATININE,"120 h, time 5 day",0.21 mg/dL
same,GLUCOSE,"120 h, time 5 day",156.67 mg/dL
same,LACTATE DEHYDROGENASE,"120 h, time 5 day",601 u/L
same,LIPASE,"120 h, time 5 day",8.67 u/L
same,PHOSPHORUS,"120 h, time 5 day",13.17 mg/dL
same,POTASSIUM,"120 h, time 5 day",5.78 MEQ/L
same,SODIUM,"120 h, time 5 day",147.03 MEQ/L
same,TOTAL BILIRUBIN,"120 h, time 5 day",0.13 mg/dL
same,TOTAL PROTEIN,"120 h, time 5 day",5.8 G/DL
same,URIC ACID,"120 h, time 5 day",1.77 mg/dL
